# Results reported in PubChem BioAssay AID192 (DTP/NCI, 2004).
# Inconclusive results and toxic doses are left out.
# Test system: BDF1 mice, B16 melanoma ip, median survival T/C
# Test: NCI In Vivo Anticancer Drug Screen. Data for tumor model B16 Melanoma (intraperitoneal) in B6D2F1 (BDF1) mice
# Settings: endpoint: median survival time, schedule: Q01DX009 (ip), higher = longer survival
# Procedure, shortened: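 Read-out: survival or tumor size, given as treated/control ratio. Controls received vehicle only; animals bore transplantable tumors.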
# [1] = dose: 25.0 mg/kg/injection, vehicle: saline with Tween-80
# [2] = dose: 50.0 mg/kg/injection, vehicle: saline with Tween-80
# [3] = dose: 100.0 mg/kg/injection, vehicle: saline with Tween-80
# [4] = dose: 200.0 mg/kg/injection, vehicle: saline with Tween-80
# [5] = dose: 25.0 mg/kg/injection, vehicle: Klucel (hydroxypropylcellulose) (HPC)
# [6] = dose: 50.0 mg/kg/injection, vehicle: Klucel (hydroxypropylcellulose) (HPC)
# [7] = dose: 100.0 mg/kg/injection, vehicle: Klucel (hydroxypropylcellulose) (HPC)
# [8] = dose: 200.0 mg/kg/injection, vehicle: Klucel (hydroxypropylcellulose) (HPC)
# [9] = dose: 400.0 mg/kg/injection, vehicle: Klucel (hydroxypropylcellulose) (HPC)
structure (smiles),measurement,setting,value
CC(C)CNC(=O)c1ccc(N=NN(C)Cc2ccncc2)cc1,T/C,[1],93 % of control
same,T/C,[2],97 % of control
same,T/C,[3],103 % of control
OC1CC2CC1C1C=CCC21 (centres undefined),T/C,[2],95 % of control
same,T/C,[3],95 % of control
same,T/C,[4],90 % of control
Nc1nc(SCc2ccccc2F)c2ncn(C3OC(CO)C(O)C3O)c2n1 (centres undefined),T/C,"dose: 3.12 mg/kg/injection, vehicle: saline with Tween-80",105 % of control
same,T/C,"dose: 6.25 mg/kg/injection, vehicle: saline with Tween-80",116 % of control
same,T/C,"dose: 12.5 mg/kg/injection, vehicle: saline with Tween-80",122 % of control
same,T/C,[1],95 % of control
Cc1ccc(Cl)cc1NC(=O)c1ccc([N+](=O)[O-])cc1,T/C,[1],112 % of control
same,T/C,[2],110 % of control
same,T/C,[3],96 % of control
Cc1cc2nc3[nH]c4ccccc4c3nc2cc1C,T/C,[1],97 % of control
same,T/C,[2],97 % of control
same,T/C,[4],86 % of control
O=c1[nH]cnc2nc(/N=N/SCCO)[nH]c12,T/C,[5],100 % of control
same,T/C,[6],103 % of control
same,T/C,[7],101 % of control
same,T/C,[8],98 % of control
O=C(O)C(Cl)Cc1cnc[nH]1 (centres undefined),T/C,"dose: 50.0 mg/kg/injection, vehicle: saline",111 % of control
same,T/C,"dose: 100.0 mg/kg/injection, vehicle: saline",111 % of control
same,T/C,"dose: 200.0 mg/kg/injection, vehicle: saline",112 % of control
O=C(O)c1ccc(Nc2c3ccccc3nc3ccccc23)cc1,T/C,"dose: 8.0 mg/kg/injection, vehicle: other",103 % of control
same,T/C,"dose: 12.0 mg/kg/injection, vehicle: other",117 % of control
same,T/C,"dose: 13.0 mg/kg/injection, vehicle: saline with Tween-80",119 % of control
same,T/C,"dose: 28.0 mg/kg/injection, vehicle: other",117 % of control
same,T/C,"dose: 42.0 mg/kg/injection, vehicle: other",160 % of control
same,T/C,"dose: 44.0 mg/kg/injection, vehicle: Klucel (hydroxypropylcellulose) (HPC)",169 % of control
same,T/C,"dose: 44.0 mg/kg/injection, vehicle: saline with Tween-80",156 % of control
CC(=O)Nc1ccc(/C=N/NC(N)=S)cc1,T/C,[5],102 % of control
same,T/C,[1],108 % of control
same,T/C,[6],100 % of control
same,T/C,[2],105 % of control
same,T/C,[7],102 % of control
same,T/C,[3],100 % of control
same,T/C,[8],105 % of control
same,T/C,[4],98 % of control
same,T/C,[9],100 % of control
same,T/C,"dose: 400.0 mg/kg/injection, vehicle: saline with Tween-80",95 % of control
COC1(OC)C2(Cl)C(Cl)=C(Cl)C1(Cl)C1C(=O)C=CC(=O)C12 (centres undefined),T/C,"dose: 1.56 mg/kg/injection, vehicle: Klucel (hydroxypropylcellulose) (HPC)",91 % of control
same,T/C,"dose: 3.12 mg/kg/injection, vehicle: Klucel (hydroxypropylcellulose) (HPC)",90 % of control
same,T/C,"dose: 6.25 mg/kg/injection, vehicle: Klucel (hydroxypropylcellulose) (HPC)",90 % of control
same,T/C,"dose: 12.5 mg/kg/injection, vehicle: Klucel (hydroxypropylcellulose) (HPC)",90 % of control
same,T/C,[5],91 % of control
same,T/C,[9],88 % of control
CCc1ccc(NC(=O)Nc2ccc(Cl)cc2)cc1,T/C,"dose: 100.0 mg/kg/injection, vehicle: gum acacia",89 % of control
same,T/C,"dose: 200.0 mg/kg/injection, vehicle: gum acacia",98 % of control
same,T/C,"dose: 400.0 mg/kg/injection, vehicle: gum acacia",93 % of control
